According to ChEMBL document CHEMBL2311347, “The discovery of fused oxadiazepines as gamma secretase modulators for treatment of Alzheimer's disease” (Bioorg Med Chem Lett, 2013):

How the values were obtained:
[1] = target: Gamma-secretase (Homo sapiens) (UniProt Q96BI3+Q9NZ42+Q8WW43+P49768+Q92542+P49810); assay: Inhibition of gamma secretase (unknown origin) assessed as ratio of Abeta to Abeta42 level; assay type: protein-complex assay
Gamma-secretase = assay: Inhibition of gamma secretase (unknown origin) assessed as reduction of Abeta42 production; assay type: protein-complex assay, Homo sapiens
Rattus norvegicus [2] = assay: Antialzheimer's disease activity in rat assessed as reduction in Abeta42 level at 10 mg/kg, po measured after 3 hrs post dose; assay type: functional
hERG = hERG (Homo sapiens, UniProt Q12809); assay: Inhibition of human ERG at 10 uM
[3] = target: T1, Nuclear receptor subfamily 1 group I member 2 (Homo sapiens, UniProt O75469); assay: Activation of PXR (unknown origin) assessed as induction of CYP2B1/2 expression up to 30 uM relative to untreated control; assay type: ADME
T1 sequence (O75469 whole entry): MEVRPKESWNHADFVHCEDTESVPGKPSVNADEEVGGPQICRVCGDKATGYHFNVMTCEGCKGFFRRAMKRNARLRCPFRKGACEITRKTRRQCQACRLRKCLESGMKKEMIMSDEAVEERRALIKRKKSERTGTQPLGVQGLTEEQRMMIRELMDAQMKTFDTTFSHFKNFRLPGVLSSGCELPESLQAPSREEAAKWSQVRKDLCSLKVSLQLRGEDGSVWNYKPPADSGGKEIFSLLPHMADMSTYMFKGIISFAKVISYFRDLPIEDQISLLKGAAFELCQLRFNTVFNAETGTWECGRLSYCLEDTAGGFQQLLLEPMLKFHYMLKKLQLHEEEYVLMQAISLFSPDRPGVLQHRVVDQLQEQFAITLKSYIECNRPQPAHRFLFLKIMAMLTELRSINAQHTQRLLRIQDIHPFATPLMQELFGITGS

[4] = target: T1, Nuclear receptor subfamily 1 group I member 2; assay: Activation of PXR (unknown origin) assessed as induction of CYP3A1 expression up to 30 uM relative to untreated control; assay type: ADME
[5] = target: T1, Nuclear receptor subfamily 1 group I member 2; assay: Activation of PXR (unknown origin) assessed as induction of CYP1A1 expression up to 30 uM relative to untreated control; assay type: ADME
Cytochrome P450 2C9 = Cytochrome P450 2C9 (Homo sapiens, UniProt P11712); assay: Inhibition of CYP2C9 (unknown origin); assay type: ADME
Cytochrome P450 3A4 = Cytochrome P450 3A4 (Homo sapiens, UniProt P08684); assay: Inhibition of CYP3A4 (unknown origin); assay type: ADME
Cytochrome P450 2D6 = Cytochrome P450 2D6 (Homo sapiens, UniProt P10635); assay: Inhibition of CYP2D6 (unknown origin); assay type: ADME
[6] = Ratio of drug level in brain to plasma in rat at 10 mg/kg, po measured after 6 hrs post dose; assay type: ADME, organism-based; design: dose 10 mg/kg, route oral; conditions: read-out: BPR
[7] = Drug level in rat brain at 10 mg/kg, po measured after 6 hrs post dose; assay type: ADME, organism-based; design: dose 10 mg/kg, route oral; conditions: read-out: Drug uptake
[8] = AUC in rat at 10 mg/kg, po measured after 6 hrs post dose; assay type: ADME, organism-based; design: time < 6 hr, dose 10 mg/kg, route oral; conditions: plasma
Rattus norvegicus [9] = assay: Antialzheimer's disease activity in rat assessed as reduction in Abeta42 level at 3 mg/kg, po measured after 3 hrs post dose; assay type: functional
Rattus norvegicus [10] = assay: Antialzheimer's disease activity in rat assessed as reduction in Abeta42 level at 30 mg/kg, po measured after 3 hrs post dose; assay type: functional
Rattus norvegicus [11] = assay: Antialzheimer's disease activity in po dosed rat assessed as reduction in Abeta42 level measured after 3 hrs post dose; assay type: functional, organism-based

Chain of hERG (Q12809 whole entry): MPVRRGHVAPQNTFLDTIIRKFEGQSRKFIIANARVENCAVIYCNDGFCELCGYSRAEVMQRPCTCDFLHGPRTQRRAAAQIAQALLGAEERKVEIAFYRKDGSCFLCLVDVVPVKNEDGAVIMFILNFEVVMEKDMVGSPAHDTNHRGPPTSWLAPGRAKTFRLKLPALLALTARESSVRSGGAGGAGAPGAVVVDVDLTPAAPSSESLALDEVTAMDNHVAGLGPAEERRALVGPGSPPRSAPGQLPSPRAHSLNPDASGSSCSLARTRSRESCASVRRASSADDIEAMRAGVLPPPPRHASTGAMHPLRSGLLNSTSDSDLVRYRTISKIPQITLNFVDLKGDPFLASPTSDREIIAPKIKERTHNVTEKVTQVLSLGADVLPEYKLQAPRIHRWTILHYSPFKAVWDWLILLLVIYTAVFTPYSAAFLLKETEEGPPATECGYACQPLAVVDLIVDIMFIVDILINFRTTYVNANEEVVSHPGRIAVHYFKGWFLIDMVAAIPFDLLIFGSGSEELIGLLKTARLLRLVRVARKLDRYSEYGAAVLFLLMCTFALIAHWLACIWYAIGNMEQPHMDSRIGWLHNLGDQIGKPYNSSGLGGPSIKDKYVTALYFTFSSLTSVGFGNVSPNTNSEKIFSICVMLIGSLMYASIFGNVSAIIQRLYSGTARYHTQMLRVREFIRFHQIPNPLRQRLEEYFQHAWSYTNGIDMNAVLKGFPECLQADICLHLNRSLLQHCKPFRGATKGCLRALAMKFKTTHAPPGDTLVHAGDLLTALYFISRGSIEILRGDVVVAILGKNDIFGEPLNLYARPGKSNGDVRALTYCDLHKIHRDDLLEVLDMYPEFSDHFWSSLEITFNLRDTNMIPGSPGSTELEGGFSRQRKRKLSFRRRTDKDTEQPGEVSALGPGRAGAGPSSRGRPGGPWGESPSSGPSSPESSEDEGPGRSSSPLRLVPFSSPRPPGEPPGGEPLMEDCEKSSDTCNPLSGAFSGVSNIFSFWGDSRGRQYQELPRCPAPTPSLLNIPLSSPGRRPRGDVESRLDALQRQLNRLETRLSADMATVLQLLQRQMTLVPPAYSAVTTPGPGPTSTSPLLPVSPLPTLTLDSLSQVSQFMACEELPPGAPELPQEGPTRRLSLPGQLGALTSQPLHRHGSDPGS
Chain of Cytochrome P450 2C9 (P11712 whole entry): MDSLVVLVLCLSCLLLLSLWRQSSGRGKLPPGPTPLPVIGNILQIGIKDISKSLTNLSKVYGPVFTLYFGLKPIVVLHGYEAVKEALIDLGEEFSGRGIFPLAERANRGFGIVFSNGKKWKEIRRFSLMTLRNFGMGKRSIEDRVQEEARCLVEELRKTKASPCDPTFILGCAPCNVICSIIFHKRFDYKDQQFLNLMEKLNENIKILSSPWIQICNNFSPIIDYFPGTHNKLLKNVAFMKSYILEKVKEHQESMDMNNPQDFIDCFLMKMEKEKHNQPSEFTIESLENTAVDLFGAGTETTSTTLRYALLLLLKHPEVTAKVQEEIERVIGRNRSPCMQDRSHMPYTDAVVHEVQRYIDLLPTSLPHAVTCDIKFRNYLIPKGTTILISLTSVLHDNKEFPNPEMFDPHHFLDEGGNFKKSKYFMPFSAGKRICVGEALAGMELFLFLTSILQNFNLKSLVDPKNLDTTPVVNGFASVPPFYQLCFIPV
Chain of Cytochrome P450 3A4 (P08684 whole entry): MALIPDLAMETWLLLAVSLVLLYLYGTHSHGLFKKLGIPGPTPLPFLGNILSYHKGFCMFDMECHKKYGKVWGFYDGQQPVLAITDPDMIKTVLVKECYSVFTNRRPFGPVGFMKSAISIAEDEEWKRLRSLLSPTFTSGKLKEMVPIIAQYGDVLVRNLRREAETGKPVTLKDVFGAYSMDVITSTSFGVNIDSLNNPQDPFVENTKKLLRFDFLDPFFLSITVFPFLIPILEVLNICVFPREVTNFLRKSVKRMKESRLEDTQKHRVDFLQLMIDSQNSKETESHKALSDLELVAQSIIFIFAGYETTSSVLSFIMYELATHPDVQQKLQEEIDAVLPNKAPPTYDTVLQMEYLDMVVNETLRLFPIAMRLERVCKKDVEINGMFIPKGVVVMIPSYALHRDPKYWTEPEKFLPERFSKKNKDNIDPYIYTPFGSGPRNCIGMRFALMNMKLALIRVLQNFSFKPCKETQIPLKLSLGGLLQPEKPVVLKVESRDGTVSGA
Chain of Cytochrome P450 2D6 (P10635 whole entry): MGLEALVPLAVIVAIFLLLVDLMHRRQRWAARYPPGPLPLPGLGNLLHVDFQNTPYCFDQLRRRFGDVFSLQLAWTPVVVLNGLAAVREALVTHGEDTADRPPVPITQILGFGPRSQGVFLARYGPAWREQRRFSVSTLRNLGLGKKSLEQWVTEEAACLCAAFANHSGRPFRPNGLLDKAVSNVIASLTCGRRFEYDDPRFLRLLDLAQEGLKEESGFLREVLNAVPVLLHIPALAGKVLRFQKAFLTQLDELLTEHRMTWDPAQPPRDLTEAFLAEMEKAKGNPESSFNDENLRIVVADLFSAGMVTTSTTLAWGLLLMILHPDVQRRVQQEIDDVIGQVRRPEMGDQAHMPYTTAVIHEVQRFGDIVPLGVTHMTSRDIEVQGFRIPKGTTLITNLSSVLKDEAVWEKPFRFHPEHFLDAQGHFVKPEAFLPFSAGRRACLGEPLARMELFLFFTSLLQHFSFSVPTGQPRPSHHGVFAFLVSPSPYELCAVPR

| Compound | Ratio [1] | IC50 (Gamma-secretase) | inhibition in vivo at 10 mg/kg (Rattus norvegicus [2]) | inhibition at 10 µM (hERG) | also measured |
| --- | --- | --- | --- | --- | --- |
| COc1cc(/C=C2\CCCCN3C2=NOC[C@@H]3c2cc(F)c(F)c(F)c2)ccc1-n1cnc(C)c1 | 32 | 88 nM | – | – | – |
| COc1cc(/C=C2\CCCN3CC(c4ccccc4)CON=C23)ccc1-n1cnc(C)c1 (configuration not stated) | 140 | 140 nM | – | – | – |
| COc1cc(/C=C2\CCCN3C2=NOCC[C@@H]3c2cc(F)cc(F)c2)ccc1-n1cnc(C)c1 | 392 | 37 nM | 39% | 49% | – |
| COc1cc(/C=C2\CCCN3C2=NOC[C@@H]3c2cc(F)c(F)c(F)c2)ccc1-n1cnc(C)c1 | 607 | – | – | – | – |
| COc1cc(/C=C2\CCCN3C2=NOCC[C@@H]3c2cc(F)cc(Cl)c2)ccc1-n1cnc(C)c1 | 480 | 16 nM | 59% | 53% | – |
| COc1cc(/C=C2\CCCN3C2=NOCC[C@@H]3c2ccc(F)cc2)ccc1-n1cnc(C)c1 | 409 | 49 nM | 40% | 81% | – |
| COc1cc(/C=C2\CCCN3C2=NOCC[C@@H]3c2ccc(F)c(F)c2)ccc1-n1cnc(C)c1 | 466 | 24 nM | 48% | 56% | – |
| COc1cc(/C=C2\CCCN3C2=NOCC[C@@H]3c2ccc(F)c(Cl)c2)ccc1-n1cnc(C)c1 | 340 | 40 nM | 38% | 39% | – |
| COc1cc(/C=C2\CCCN3C2=NOCC[C@@H]3c2ccc(Cl)c(F)c2)ccc1-n1cnc(C)c1 | 210 | 95 nM | 57% | – | – |
| COc1cc(/C=C2\CCCN3C2=NOC[C@@H](O)[C@@H]3c2cc(F)cc(F)c2)ccc1-n1cnc(C)c1 | 83 | 240 nM | – | 55% | – |
| COc1cc(/C=C2\CCCN3C2=NOCC[C@@H]3c2ccc(F)cc2F)ccc1-n1cnc(C)c1 | 354 | 52 nM | 23% | – | – |
| CCCO[C@@H]1CON=C2/C(=C/c3ccc(-n4cnc(C)c4)c(OC)c3)CCCN2[C@H]1c1cc(F)cc(F)c1 | 16 | 1260 nM | – | 42% | – |
| COc1cc(/C=C2\CCCCN3C2=NOC[C@@H]3c2ccc(F)cc2)ccc1-n1cnc(C)c1 | 35 | 580 nM | – | – | – |
| COc1cc(/C=C2\CCCN3CCC(c4ccc(F)cc4)ON=C23)ccc1-n1cnc(C)c1 (configuration not stated) | 465 | 43 nM | – | 93% | – |
| COc1cc(/C=C2\CCCN3C2=NOCC[C@@H]3c2cccc(F)c2)ccc1-n1cnc(C)c1 | 572 | 35 nM | – | 86% | – |
| COc1cc(/C=C2\CCCN3C2=NOC(C)CC3c2cc(F)c(F)c(F)c2)ccc1-n1cnc(C)c1 (mixture of isomers) | 480 | 41 nM | – | – | – |
| COc1cc(/C=C2\CCCN3C2=NOCC[C@@H]3c2cc(F)c(F)c(F)c2)ccc1-n1cnc(C)c1 | 510 | 39 nM | 61% | 33% | Activity [3]: 0%; Activity [4]: 0%; Activity [5]: 2%; IC50 (Cytochrome P450 2C9): > 30000 nM; IC50 (Cytochrome P450 3A4): > 30000 nM; IC50 (Cytochrome P450 2D6): > 30000 nM; Kp at 6 h [6]: 3.2; concentration at 6 h [7]: 1800 ng/g; AUC at 6 h [8]: 15.8 µM·h; inhibition in vivo at 3 mg/kg (Rattus norvegicus [9]): 43%; inhibition in vivo at 30 mg/kg (Rattus norvegicus [10]): 78%; inhibition (Rattus norvegicus [11]): Dose-dependent effect |
| COc1cc(/C=C2\CCCN3CCC(c4cc(F)cc(Cl)c4)ON=C23)ccc1-n1cnc(C)c1 (configuration not stated) | 262 | 64 nM | – | 61% | – |
| COc1cc(/C=C2\CCCN3CCC(c4cc(F)c(F)c(F)c4)ON=C23)ccc1-n1cnc(C)c1 (configuration not stated) | 364 | 53 nM | – | 89% | – |
| COc1cc(/C=C2\CCCN3CCC(c4ccccc4)ON=C23)ccc1-n1cnc(C)c1 (configuration not stated) | 489 | 41 nM | – | 93% | – |
| COc1cc(/C=C2\CCCN3CCC(c4cc(F)cc(F)c4)ON=C23)ccc1-n1cnc(C)c1 (configuration not stated) | 371 | 41 nM | – | – | – |
| COc1cc(/C=C2\CCCN3CC(c4ccc(F)cc4)CON=C23)ccc1-n1cnc(C)c1 (configuration not stated) | 150 | 130 nM | – | 90% | – |
